Data as given in patent publication US9511058B2, “Methods for using carboxamide, sulfonamide and amine compounds” (Rigel Pharmaceuticals, Inc., priority 2010, dated 2016).
pEC50: −log10 of the molar value.

Target: AMPK
Experiment: AMPK activation, enzyme-linked immunosorbent assay
Format: biochemical
Conditions: compounds of Table 1 (Table 6)
Protocol: Compounds of Table 1 were assayed for their ability to activate AMPK using an enzyme-linked immunosorbent assay.
Compounds of Table 2 were assayed for their ability to activate AMPK using an enzyme-linked immunosorbent assay.
Compounds of Table 3 were assayed for their ability to activate AMPK using an enzyme-linked immunosorbent assay.
Compounds of Table 4 were assayed for their ability to activate AMPK using an enzyme-linked immunosorbent assay.
Compounds of Table 5 were assayed for their ability to activate AMPK using an enzyme-linked immunosorbent assay.

pEC50	SMILES
> 7.00	N#Cc1ccc(CN2CCC(NC(=O)c3ccc(OC4CCN(c5ccc(C#N)cc5)CC4)cn3)CC2)cc1 [1-2, N-(1-(4-cyanobenzyl)piperidin-4-yl)-5-(1-(4-cyanophenyl)piperidin-4-yloxy)picolinamide]
> 7.00	O=C(NC1CCN(Cc2ccncc2)CC1)c1ccc(OC2CCN(c3ccc(C(F)(F)F)cc3)CC2)cn1 [1-3, N-(1-(pyridin-4-ylmethyl)piperidin-4-yl)-5-(1-(4-(trifluoromethyl)phenyl)piperidin-4-yloxy)picolinamide]
> 7.00	N#Cc1ccc(CN2CCC(NC(=O)c3ccc(OC4CCN(c5ccc(C(F)(F)F)cc5)CC4)cn3)CC2)cc1 [1-4, N-(1-(4-cyanobenzyl)piperidin-4-yl)-5-(1-(4-(trifluoromethyl)phenyl)piperidin-4-yloxy)picolinamide]
6.30 to 7.00	N#Cc1ccc(N2CCC(Oc3ccc(C(=O)NC4CCN(Cc5cccnc5)CC4)nc3)CC2)cc1 [1-6, N-(1-(pyridin-3-ylmethyl)piperidin-4-yl)-5-(1-(4-cyanophenyl)piperidin-4-yloxy)picolinamide]
> 7.00	COC(=O)c1ccc(CN2CCC(NC(=O)c3ccc(OC4CCN(c5ccc(C#N)cc5)CC4)cn3)CC2)cc1 [1-7, methyl 4-((4-(5-(1-(4-cyanophenyl)piperidin-4-yloxy)picolinamido)piperidin-1-yl)methyl)benzoate]
> 7.00	O=C(NC1CCN(Cc2ccc(F)cc2)CC1)c1ccc(OC2CCN(c3ccc(C(F)(F)F)cc3)CC2)nc1 [1-11, N-(1-(4-fluorobenzyl)piperidin-4-yl)-6-(1-(4-(trifluoromethyl)phenyl)piperidin-4-yloxy)nicotinamide]
5.30 to 6.00	CC(C)(C)OC(=O)N1CCC(NC(=O)c2ccnc(OC3CCN(c4ccc(C(F)(F)F)cc4)CC3)c2)CC1 [1-15, tert-butyl 4-(2-(1-(4-(trifluoromethyl)phenyl)piperidin-4-yloxy)isonicotinamido)piperidine-1-carboxylate]
> 7.00	N#Cc1ccc(CN2CCC(NC(=O)c3cncc(OC4CCN(c5ccc(C(F)(F)F)cc5)CC4)c3)CC2)cc1 [1-17, N-(1-(4-cyanobenzyl)piperidin-4-yl)-5-(1-(4-(trifluoromethyl)phenyl)piperidin-4-yloxy)nicotinamide]
> 7.00	O=C(NC1CCN(Cc2cccnc2)CC1)c1cncc(OC2CCN(c3ccc(C(F)(F)F)cc3)CC2)c1 [1-18, N-(1-(pyridin-3-ylmethyl)piperidin-4-yl)-5-(1-(4-(trifluoromethyl)phenyl)piperidin-4-yloxy)nicotinamide]
6.00 to 6.30	O=C(NC1CCN(Cc2ccncc2)CC1)c1ccnc(OC2CCN(c3ccc(C(F)(F)F)cc3)CC2)c1 [1-20, N-(1-(pyridin-4-ylmethyl)piperidin-4-yl)-2-(1-(4-(trifluoromethyl)phenyl)piperidin-4-yloxy)isonicotinamide]
6.30 to 7.00	N#Cc1ccc(CN2CCC(NC(=O)c3ccnc(OC4CCN(c5ccc(C(F)(F)F)cc5)CC4)c3)CC2)cc1 [1-21, N-(1-(4-cyanobenzyl)piperidin-4-yl)-2-(1-(4-(trifluoromethyl)phenyl)piperidin-4-yloxy)isonicotinamide]
5.30 to 6.00	O=C(NC1CCN(Cc2ccc(F)cc2)CC1)c1ccnc(OC2CCN(c3ccc(C(F)(F)F)cc3)CC2)c1 [1-22, N-(1-(4-fluorobenzyl)piperidin-4-yl)-2-(1-(4-(trifluoromethyl)phenyl)piperidin-4-yloxy)isonicotinamide]
6.30 to 7.00	CC(C)(C)OC(=O)N1CC[C@@H](NC(=O)c2ccc(OC3CCN(c4ccc(C(F)(F)F)cc4)CC3)cn2)C1 [1-23, (R)-tert-butyl 3-(5-(1-(4-(trifluoromethyl)phenyl)piperidin-4-yloxy)picolinamido)pyrrolidine-1-carboxylate]
5.00 to 5.30	O=C(N[C@@H]1CCNC1)c1ccc(OC2CCN(c3ccc(C(F)(F)F)cc3)CC2)cn1 [1-24, (R)-N-(pyrrolidin-3-yl)-5-(1-(4-(trifluoromethyl)phenyl)piperidin-4-yloxy)picolinamide]
6.30 to 7.00	CC(C)(C)OC(=O)N1CC[C@H](NC(=O)c2ccc(OC3CCN(c4ccc(C(F)(F)F)cc4)CC3)cn2)C1 [1-26, (S)-tert-butyl 3-(5-(1-(4-(trifluoromethyl)phenyl)piperidin-4-yloxy)picolinamido)pyrrolidine-1-carboxylate]
> 7.00	N#Cc1ccc(CN2CCC(NC(=O)c3cc(OC4CCN(c5ccc(C(F)(F)F)cc5)CC4)ccn3)CC2)cc1 [1-28, N-(1-(4-cyanobenzyl)piperidin-4-yl)-4-(1-(4-(trifluoromethyl)phenyl)piperidin-4-yloxy)picolinamide]
> 7.00	N#Cc1ccc(CN2CC[C@H](NC(=O)c3ccc(OC4CCN(c5ccc(C(F)(F)F)cc5)CC4)cn3)C2)cc1 [1-31, (S)-N-(1-(4-cyanobenzyl)pyrrolidin-3-yl)-5-(1-(4-(trifluoromethyl)phenyl)piperidin-4-yloxy)picolinamide]
6.00 to 6.30	N#Cc1ccc(CN2CC[C@@H](NC(=O)c3ccc(OC4CCN(c5ccc(C(F)(F)F)cc5)CC4)cn3)C2)cc1 [1-33, (R)-N-(1-(4-cyanobenzyl)pyrrolidin-3-yl)-5-(1-(4-(trifluoromethyl)phenyl)piperidin-4-yloxy)picolinamide]
6.30 to 7.00	N#Cc1ccc(CN2CCC(NC(=O)c3ccc(OC4CCN(c5ccc(C(F)(F)F)cc5)CC4)nc3)CC2)cc1 [1-35, N-(1-(4-cyanobenzyl)piperidin-4-yl)-6-(1-(4-(trifluoromethyl)phenyl)piperidin-4-yloxy)nicotinamide]

The next lines start with the compound.

SMILES	pEC50
N#Cc1ccc(N2CCC(Oc3ccc(C(=O)NC4CCN(Cc5ccncc5)CC4)nc3)CC2)cc1 [1-1, 5-(1-(4-cyanophenyl)piperidin-4-yloxy)-N-(1-(pyridin-4-ylmethyl)piperidin-4-yl)picolinamide]	6.30 to 7.00
O=C(NC1CCN(Cc2cccnc2)CC1)c1ccc(OC2CCN(c3ccc(C(F)(F)F)cc3)CC2)cn1 [1-5, N-(1-(pyridin-3-ylmethyl)piperidin-4-yl)-5-(1-(4-(trifluoromethyl)phenyl)piperidin-4-yloxy)picolinamide]	> 7.00
COC(=O)c1ccc(CN2CCC(NC(=O)c3ccc(OC4CCN(c5ccc(C(F)(F)F)cc5)CC4)cn3)CC2)cc1 [1-8, methyl 4-((4-(5-(1-(4-(trifluoromethyl)phenyl)piperidin-4-yloxy)picolinamido)piperidin-1-yl)methyl)benzoate]	> 7.00
CC(C)(C)OC(=O)N1CCC(NC(=O)c2ccc(OC3CCN(c4ccc(C(F)(F)F)cc4)CC3)nc2)CC1 [1-9, tert-butyl 4-(6-(1-(4-(trifluoromethyl)phenyl)piperidin-4-yloxy)nicotinamido)piperidine-1-carboxylate]	6.30 to 7.00
O=C(NC1CCN(Cc2ccncc2)CC1)c1ccc(OC2CCN(c3ccc(C(F)(F)F)cc3)CC2)nc1 [1-10, N-(1-(pyridin-4-ylmethyl)piperidin-4-yl)-6-(1-(4-(trifluoromethyl)phenyl)piperidin-4-yloxy)nicotinamide]	> 7.00
CC(C)(C)OC(=O)N1CCC(NC(=O)c2cc(OC3CCN(c4ccc(C(F)(F)F)cc4)CC3)ccn2)CC1 [1-12, tert-butyl 4-(4-(1-(4-(trifluoromethyl)phenyl)piperidin-4-yloxy)picolinamido)piperidine-1-carboxylate]	6.00 to 6.30
O=C(NC1CCN(Cc2ccncc2)CC1)c1cc(OC2CCN(c3ccc(C(F)(F)F)cc3)CC2)ccn1 [1-13, N-(1-(pyridin-4-ylmethyl)piperidin-4-yl)-4-(1-(4-(trifluoromethyl)phenyl)piperidin-4-yloxy)picolinamide]	6.30 to 7.00
O=C(NC1CCN(Cc2ccncc2)CC1)c1cncc(OC2CCN(c3ccc(C(F)(F)F)cc3)CC2)c1 [1-14, N-(1-(pyridin-4-ylmethyl)piperidin-4-yl)-5-(1-(4-(trifluoromethyl)phenyl)piperidin-4-yloxy)nicotinamide]	> 7.00
O=C(NC1CCNCC1)c1ccnc(OC2CCN(c3ccc(C(F)(F)F)cc3)CC2)c1 [1-19, N-(piperidin-4-yl)-2-(1-(4-(trifluoromethyl)phenyl)piperidin-4-yloxy)isonicotinamide]	5.30 to 6.00
O=C(N[C@@H]1CCN(Cc2ccncc2)C1)c1ccc(OC2CCN(c3ccc(C(F)(F)F)cc3)CC2)cn1 [1-25, (R)-N-(1-(pyridin-4-ylmethyl)pyrrolidin-3-yl)-5-(1-(4-(trifluoromethyl)phenyl)piperidin-4-yloxy)picolinamide]	6.30 to 7.00
O=C(N[C@H]1CCNC1)c1ccc(OC2CCN(c3ccc(C(F)(F)F)cc3)CC2)cn1 [1-27, (S)-N-(pyrrolidin-3-yl)-5-(1-(4-(trifluoromethyl)phenyl)piperidin-4-yloxy)picolinamide]	< 5.00
O=C(NC1CCN(Cc2ccc(F)cc2)CC1)c1cc(OC2CCN(c3ccc(C(F)(F)F)cc3)CC2)ccn1 [1-29, N-(1-(4-fluorobenzyl)piperidin-4-yl)-4-(1-(4-(trifluoromethyl)phenyl)piperidin-4-yloxy)picolinamide]	6.30 to 7.00
O=C(N[C@H]1CCN(Cc2ccncc2)C1)c1ccc(OC2CCN(c3ccc(C(F)(F)F)cc3)CC2)cn1 [1-30, (S)-N-(1-(pyridin-4-ylmethyl)pyrrolidin-3-yl)-5-(1-(4-(trifluoromethyl)phenyl)piperidin-4-yloxy)picolinamide]	> 7.00
O=C(N[C@H]1CCN(Cc2ccc(F)cc2)C1)c1ccc(OC2CCN(c3ccc(C(F)(F)F)cc3)CC2)cn1 [1-32, (S)-N-(1-(4-fluorobenzyl)pyrrolidin-3-yl)-5-(1-(4-(trifluoromethyl)phenyl)piperidin-4-yloxy)picolinamide]	6.30 to 7.00
O=C(N[C@@H]1CCN(Cc2ccc(F)cc2)C1)c1ccc(OC2CCN(c3ccc(C(F)(F)F)cc3)CC2)cn1 [1-34, (R)-N-(1-(4-fluorobenzyl)pyrrolidin-3-yl)-5-(1-(4-(trifluoromethyl)phenyl)piperidin-4-yloxy)picolinamide]	6.00 to 6.30
